The subject of data set [1] is OGD/R‐treated HT22 cells. The data set can be described thus: Neuroprotective effect on OGD/R-treated HT22 cells, cell viability by CCK-8. Particulars: 6 h OGD; for viability at 2 µM / viability at 20 µM: Mus musculus, HT-22, 24 h reoxygenation with compound, relative to control cells, mean ± S.D., n = 3. The data set is classed as cell-based. On the procedure: HT22 cells were washed with phosphate buffered saline (PBS), then DMEM sugar‐free medium (Gibco, USA) was added and placed in the anaerobic incubator of 5% CO2, 1% O2, and 37 °C for 6 h. PB3 or other compounds were previously dissolved in DMEM/F‐12 with 10% FBS and 1% penicillin/streptomycin. After undergoing OGD for 6 h, the medium was replaced by DMEM/F‐12 with 10% FBS and 1% penicillin/streptomycin containing PB3 or other compounds and kept in a humidified 5% CO2, 37 °C incubator for 24 h.
The CCK‐8 assay kit (Yeasen, China) was used to assess cell viability. All operations were performed following instructions. HT22 cells were seeded into the 96‐well plate (3000 cells per well). The cells were cultured at 37 °C with 5% CO2 in a humidified incubator overnight. After 6 h of OGD, the medium was replaced by DMEM/F‐12 with 10% FBS and 1% penicillin/streptomycin containing PB3 or other compounds and kept in a humidified 5% CO2, 37 °C incubator for 24 h. Then, the cells were washed with PBS, the medium was replaced with DMEM/F‐12 with 10% FBS and 1% penicillin/streptomycin containing 10% CCK‐8 solution, and incubated for 1 h at 37 °C. The absorbance was assessed by a Synergy H1 multi‐mode microplate reader (BioTek, USA) at 450 nm.

The target of data set [2] is T1, recombinant human G3BP1 protein (Homo sapiens, UniProt Q13283).
T1 construct: purchased Hubei Ipodix Biotechnology Co., Ltd. (China)
T1 sequence (Q13283 whole entry): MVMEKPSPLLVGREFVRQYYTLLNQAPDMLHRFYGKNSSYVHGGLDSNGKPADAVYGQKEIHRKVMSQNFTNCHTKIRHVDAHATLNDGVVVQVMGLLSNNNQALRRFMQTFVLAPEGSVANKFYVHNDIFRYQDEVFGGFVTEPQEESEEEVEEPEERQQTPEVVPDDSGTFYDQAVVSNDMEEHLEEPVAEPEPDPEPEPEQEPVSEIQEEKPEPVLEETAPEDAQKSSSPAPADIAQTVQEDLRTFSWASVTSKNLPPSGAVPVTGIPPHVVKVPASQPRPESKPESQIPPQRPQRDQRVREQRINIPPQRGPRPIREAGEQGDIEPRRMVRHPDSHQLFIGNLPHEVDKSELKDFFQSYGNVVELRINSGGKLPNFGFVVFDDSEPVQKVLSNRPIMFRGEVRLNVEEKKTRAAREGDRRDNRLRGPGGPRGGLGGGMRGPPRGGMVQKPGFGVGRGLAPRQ
The data set can be described thus: SPR analysis of binding to G3BP1 (Biacore T200, CM5 chip). Particulars: 1:1 binding model, running buffer PBS. On the procedure:
The SPR analyses were carried out using a Biacore T200 instrument (GE Healthcare, USA) with the Series Sensor Chip CM5 (GE Healthcare, USA). The recombinant human G3BP1 protein was purchased from Hubei Ipodix Biotechnology Co., Ltd. (China). The protein was immobilized on the chip using an amine coupling kit (GE Healthcare, USA). The blank channel served as the negative control. The binding experiments were performed at a flow rate of 30 µL min^−1. For the measurement of the kinetic parameters of PB3 and 6c, gradient dilutions of PB3 and 6c were injected into the immobilized protein. The running buffer was PBS. All biosensor data were processed and analyzed with Biacore T200 Evaluation software version 3.2 (GE Healthcare, USA) and fitted by a 1:1 binding model.

A short description of data set [3]: Brain and plasma concentrations after MCAO/reperfusion (BBB assessment). It is filed as in vivo, mice. As to conditions: C57BL/6, mouse, ip, 0.5 h after administration, 48 mg kg^−1 i.p., after 1.5 h of MCAO followed by reperfusion; for Kp at 0.5 h: brain / plasma, read-out: CBrain/Cplasma. On the procedure:
After 1.5 h of MCAO followed by reperfusion, each of 1 and 6c was administered at a dose of 48 mg kg^−1 intraperitoneally to mice, and the brain and plasma concentrations of each compound were measured at 0.5 h after administration. The ratios of brain to plasma concentrations of 1 and 6c were 0.37 and 0.57, respectively, confirming that the BBB permeability of compounds benefited from higher lipophilicity (Table 2 ). The decrease in 6c concentration in vivo may be due to changes in metabolic routes. Tertiary carbon atoms and terminal carbon atoms are easily metabolized through oxidative pathways,^[ [55] ^] so the introduction of isopropyl groups leads to the production of more metabolites, resulting in a decrease in the area under curve (AUC). The metabolites of oligomeric proanthocyanidins and their analogues are quite complex. Although there are a large number of metabolites, most of them have a flavan‐3‐ol core structure and contain many phenolic hydroxyl groups.^[ [56] ^] As mentioned above, phenolic hydroxyl groups are important active functional groups to exert neuroprotective effects, so it can be inferred that metabolites of 6c also have similar activity to 6c. In future work, radiolabeled pharmacokinetic studies and metabolite studies are needed to further elucidate the metabolism of the preferred compound.^[ [57] ^] Pharmacokinetic analyses were performed using a LC‐40D XS HPLC system (Shimadzu, Japan) coupled with a Sciex Triple Quad 5500 mass spectrometer (AB SCIEX, USA). Tested compounds PB3 and 6c were administered by i.p. injection (48 mg kg^−1, formulation solvent: normal saline). Blood samples were drawn from the retro‐orbital vein at 0.083, 0.25, 0.5, 1, 2, 4, 8, and 24 h post‐injection with EDTA dipotassium salt as an anticoagulant. Subsequently, the plasma fractions were collected in Eppendorf tubes and centrifuged at 4000 g for 5 min at 4 °C and stored at −80 °C for analysis. Brain tissue was mixed with four‐fold normal saline for homogenization (10 s per time with a 10 s interval for 3–5 times). Then, the mixture was centrifuged at 4000 g for 5 min at 4 °C, and the supernatant was stored at −80 °C for analysis. For sample preparation, the desired serial concentrations of working solutions were achieved by diluting a stock solution of analyte with 50% methanol in water solution. 2 µL of working solutions were added to 10 µL of the blank C57BL/6 mouse plasma/brain homogenate to achieve calibration standards of 10–10 000 ng mL^−1 (10, 20, 100, 200, 1000, 2000, 4000, 10 000 ng mL^−1) in a total volume of 12 µL. Three quality control samples at 20 ng mL^−1, 1600 ng mL^−1, and 8000 ng mL^−1 for plasma were prepared independently of those used for the calibration curves. These QC samples were prepared on the day of analysis in the same way as calibration standards.

Data set [4] deals with SG in HT22 cells. The data set can be described thus: Immunofluorescence staining of G3BP1 to detect SG level in HT22 cells under OGD/R. Particulars: for ratio of SG‐positive cells: 100 µM; for SG levels: after 6 h of OGD, 24 h treatment. It is filed as cell-based. On the procedure: Immunofluorescence analysis of the stress granule (SG) core component G3BP1 was utilized to investigate the SG formation in HT22 cells and the cortex. HT22 cells were treated with 4% paraformaldehyde for 15 min. Then the fixed brain tissue slices and HT22 cells were permeabilized for 5 min using 1% Triton X‐100 (Sigma‐Aldrich, USA) dissolved in PBS and blocked with a PBS solution containing 10% goat serum for 1 h, followed by incubation with anti‐G3BP1 antibody (catalog no. 66486‐1‐Ig, Proteintech, China) at 4 °C overnight. After being washed with PBS 3 times for 5 min each, samples were incubated with secondary antibody (Alexa Fluor 568 Goat anti‐mouse IgG, Invitrogen, USA) in the dark for 2 h at room temperature. The nucleus was stained with DAPI. Fluorescent pictures were obtained with a fluorescence microscope (Carl Zeiss, Germany).

Read-outs that look alike come from different tables or passages of the source.

Turning to `Oc1cc(O)c2c(c1)O[C@H](c1ccc(O)c(O)c1)[C@@H](O)[C@@H]2c1c(O)cc(O)c2c1O[C@H](c1ccc(O)c(O)c1)[C@@H](O)C2` [Compound 1, procyanidin B3], the viability at 2 µM in data set [1] came to 63.9 ± 3.36%. In data set [1], the viability at 20 µM is 70.9 ± 6.71%. In data set [1] (PB3 at 20 to 400 µM, 24 h treatment), the cell viability rate result is on record as “significantly improve cell viability rate”. Further, in data set [2], the Kd is 44 nM. The Kp at 0.5 h in data set [3] came to 0.37. Besides, the concentration at 0.5 h was found to be 4790 ± 1610 ng/g in data set [3] (brain, read-out: CBrain) and 13000 ± 757 ng/mL in data set [3] (plasma, read-out: Cplasma). Besides, the “ratio of SG‐positive cells” value in data set [4] (1 h after administration) was “did not change significantly”; in data set [4] (after 24 h of reoxygenation), “significantly increased”. Besides, the SG levels entry in data set [4] is “enhance SG levels in a dose‐dependent manner”.

For `CC(C)c1c(O)cc(O)c2c1O[C@H](c1ccc(O)c(O)c1)[C@@H](O)[C@@H]2c1c(O)cc(O)c2c1O[C@H](c1ccc(O)c(O)c1)[C@@H](O)C2` [Compound 6c, 8‐Isopropyl‐(+)‐Catechin‐(4α,8)‐(+)‐Catechin], in data set [1], the viability at 2 µM stood at 66 ± 1.97% and the viability at 20 µM worked out at 83.6 ± 4.34%. For the same compound, the Kd in data set [2] came to 58 nM. For the same compound, the Kp at 0.5 h in data set [3] worked out at 0.57. Further, the concentration at 0.5 h in data set [3] (brain, read-out: CBrain) is 2810 ± 489 ng/g. The concentration at 0.5 h in data set [3] (plasma, read-out: Cplasma) is 4960 ± 1590 ng/mL. The SG levels entry in data set [4] is listed as “mediate SG upregulation”.
